Results from publication PMC12584665, “In vitro and in vivo efficacy of vancomycin against Elizabethkingia species and the impact of increased vancomycin MICs” (Microbiology Spectrum, 2025).
Like-named read-outs stand apart in the source and are kept apart here.

Key:
[1] = system: Elizabethkingia anophelis; assay: Disc diffusion (DD) zone diameter; type: cell-based
Excerpt: Eighteen E. anophelis clinical isolates from the nationwide surveillance program (Taiwan Surveillance of Antimicrobial Resistance) were well characterized in our previous study ([7]) and were selected for susceptibility testing and minimum bactericidal concentration (MBC) assays. Among them, five isolates with different clonality (underlined strains in Fig. S1) were selected for the time-kill assays and in vivo experiments.
Broth microdilution, disc diffusion, Etest, and agar dilution assays were conducted following CLSI guidelines to determine vancomycin MICs ([8]). […] Criteria for Staphylococcus spp. were not adopted due to the lack of a zone diameter breakpoint. MBCs were determined following CLSI guidelines ([8]).

[2] = system: Elizabethkingia anophelis; assay: Time-kill assay; type: cell-based; details: triplicate; for growth in time-kill assay: five clinical isolates, MH broth, ~5 x 10^5 CFU/mL, 37°C
Method: Time-kill assays were performed as previously described with modifications ([10]). Each 250 mL flask containing 30 mL MH broth (Becton Dickinson, Franklin Lakes, NJ, USA) was inoculated to achieve an initial bacterial density of ~5 × 10⁵ CFU/mL. Cultures were incubated at 37°C with shaking at 200 rpm. Vancomycin or teicoplanin (Sigma-Aldrich, Saint Louis, MO, USA) was added at final concentrations of 4 or 16 mg/L. At designated time points, 100 µL of samples was removed, serially diluted in sterile saline, and plated on MH agar for CFU enumeration after overnight incubation at 37°C. No washing steps were performed prior to plating; given the culture volume and dilution scheme, antibiotic carryover was expected to be negligible. All experiments were performed in triplicate.

E. anophelis = assay: Broth microdilution MIC of laboratory-induced and gene-edited mutants; type: cell-based, Elizabethkingia anophelis; details: for MIC: Elizabethkingia anophelis
Method: E. anophelis and non-anophelis species with baseline vancomycin MICs of 16–32 mg/L (Table 2) were well characterized in our previous study ([7]) and were included in the induction study. The induction of mutants with elevated vancomycin MICs was modified from a previous study ([18]). Briefly, 10^9 cfu of wild-type E. anophelis (2008S01-229) was plated on brain heart infusion agar (Becton Dickinson, Franklin Lakes, NJ, USA) with twofold multiples of vancomycin (32 –256 mg/L). Isolates from viable colonies were subjected to broth microdilution. Genomic comparison between the parental strain (2008S01-229) and elevated-MIC mutants was performed to identify the mutated gene conferring increased vancomycin MIC. To determine whether similar genetic changes occurred in other Elizabethkingia species, non-anophelis isolates were subjected to the same induction protocol. The corresponding target genes were then analyzed by Sanger sequencing to assess the presence of analogous mutations. The target gene related to elevated vancomycin MICs was also validated via scarless gene editing.
The suicide plasmid pUT-ermF, which contains two key selection markers: the ermF gene for erythromycin resistance and the sacB gene for sucrose sensitivity-based counterselection, was used as previously described ([19]). DNA fragments corresponding to the upstream and downstream flanking regions of the target gene were cloned into pUT-ermF. The recombinant plasmids were first introduced into E. coli S17–λpir and subsequently transferred into Elizabethkingia spp. via conjugation. The first recombination events were selected on LB agar containing 250 µg/mL erythromycin, and the second recombination (plasmid resolution) was selected by plating on LB agar with 10% sucrose (without NaCl). Colonies were screened and confirmed by PCR sequencing. Genome sequencing was carried out to confirm no other inadvertent changes.

[3] = system: Elizabethkingia anophelis; assay: Murine pneumonia model; type: in vivo, C57BL/6J mice; details: for survival of infected mice: 8 mice per group
Method: (§1) In vivo efficacy was assessed by wax moth (Galleria mellonella), murine pneumonia, and murine thigh infection models following the protocols of our previous study ([2]). The Animal Ethics Committee of Taiwan’s National Health Research Institutes approved the murine pneumonia and thigh infection models.
(§2) For the pneumonia model, a bacterial suspension was mixed with 5% mucin from porcine stomach (type 3; Sigma-Aldrich, Saint Louis, USA). Seven-week-old C57BL/6J mice were anesthetized with isoflurane for 10 min. For each strain, the inoculum corresponded to the lowest dose that caused >80% mortality in preliminary testing. This inoculum (10⁶–10⁸ cfu, depending on strain) was delivered intratracheally to induce pneumonia. Two hours thereafter, mice received either high or human-equivalent doses of subcutaneous vancomycin (100 mg/kg or 25 mg/kg, respectively) or intraperitoneal teicoplanin (50 mg/kg) ([17]) twice daily for 3 days. Each group contained eight mice, and survival was monitored for 3 days.

[4] = system: Acinetobacter baumannii (LAC-4); assay: Murine pneumonia model (model validation); type: in vivo, C57BL/6J mice; details: 8 mice per group
Method: as §2

[5] = system: Elizabethkingia anophelis; assay: Galleria mellonella (wax moth) infection survival model; type: in vivo
Method: as §1
G. mellonella was reared at the National Health Research Institutes of Taiwan. Caterpillars in the final instar larval stage (weight ca. 250 mg) were used. […] A 10 µL aliquot of E. anophelis at the predetermined lethal dose was injected into the hemocoel of each caterpillar via the last left proleg. Antibiotics were administered once into another proleg at the indicated time points; vancomycin (5, 10, or 20 mg/kg, 2 h post-inoculation); other glycopeptides (teicoplanin, 10 mg/kg, 30 min post-inoculation; dalbavancin, 8.75 mg/kg, 2 h post-inoculation; oritavancin, 15 mg/kg, 1 h post-inoculation) ([11][–][13]); or daptomycin (10 mg/kg, 2 h post-inoculation) ([13]). Each treatment group contained 6–8 caterpillars. A control group injected with sterile PBS was included to monitor for trauma-related mortality. Caterpillars were incubated at 37°C, and survival was recorded twice daily for 72 h.

With CN[C@H](CC(C)C)C(=O)N[C@H]1C(=O)N[C@@H](CC(N)=O)C(=O)N[C@H]2C(=O)N[C@H]3C(=O)N[C@H](C(=O)N[C@H](C(=O)O)c4cc(O)cc(O)c4-c4cc3ccc4O)[C@H](O)c3ccc(c(Cl)c3)Oc3cc2cc(c3O[C@@H]2O[C@H](CO)[C@@H](O)[C@H](O)[C@H]2O[C@H]2C[C@](C)(N)[C@H](O)[C@H](C)O2)Oc2ccc(cc2Cl)[C@H]1O [Vancomycin] the “zone diameters, all isolates” value ([1]; 18 E. anophelis isolates, disc diffusion, susceptibility breakpoint >= 17 mm (Enterococcus spp.)) was less than 17 mm, the DD zone diameter ([1]; E. anophelis clinical isolate 2008N05-106) was 15 mm and the DD zone diameter ([1]; E. anophelis clinical isolate 2008S01-229) was 15 mm. For the same molecule, the DD zone diameter ([1]; E. anophelis clinical isolate 2014C06-157) was 15 mm, the DD zone diameter ([1]; E. anophelis clinical isolate 2016N17-576) was 15 mm and the DD zone diameter ([1]; E. anophelis clinical isolate 2018C04-213) was 15 mm. It also gave a DD zone diameter ([1]; E. anophelis clinical isolate 2018C04-224) of 15 mm, a DD zone diameter ([1]; E. anophelis clinical isolate 2018C07-210) of 14 mm and a DD zone diameter ([1]; E. anophelis clinical isolate 2018C07-234) of 15 mm. For the same molecule, the DD zone diameter ([1]; E. anophelis clinical isolate 2018C08-127) was 14 mm, the DD zone diameter ([1]; E. anophelis clinical isolate 2018E03-151) was 14 mm and the DD zone diameter ([1]; E. anophelis clinical isolate 2018E04-135) was 14 mm. The DD zone diameter ([1]; E. anophelis clinical isolate 2018N16-057) was 15 mm, the DD zone diameter ([1]; E. anophelis clinical isolate 2018N17-036) was 15 mm and the DD zone diameter ([1]; E. anophelis clinical isolate 2018N17-073) was 14 mm. For the same molecule, the DD zone diameter ([1]; E. anophelis clinical isolate 2018N17-153) was 14 mm, the DD zone diameter ([1]; E. anophelis clinical isolate 2018N21-226) was 13 mm and the DD zone diameter ([1]; E. anophelis clinical isolate 2018S09-023) was 15 mm. For the same molecule, the DD zone diameter ([1]; E. anophelis clinical isolate 2018S11-172) was 13 mm, the “growth in time-kill assay” value ([2]; 4 mg/L) was “did not inhibit the growth” and the “growth in time-kill assay” value ([2]; 16 mg/L) was “Growth was inhibited at a higher level (16 mg/L) at 6 h but increased thereafter”. For the same molecule, the time-kill assay ([2]; 4 or 16 mg/L, mutant 2008S01-229-VAN-R) was “no effect”, the MIC (E. anophelis; induced E. anophelis mutant, pbp4 692InsC, Frameshift, 1 isolate) was 512 µg/mL and the MIC (E. anophelis; induced E. anophelis mutant, pbp4 736Del8bp, Frameshift, 1 isolate) was 512 µg/mL. It also gave an MIC (E. anophelis; induced E. anophelis mutant, pbp4 827DelA, Frameshift, 1 isolate) of 128 µg/mL, an MIC (E. anophelis; scarless deletion of pbp4 in wild-type E. anophelis 2008N05-106, read-out: MIC) greater than 512 µg/mL and an MIC (E. anophelis; wild-type E. anophelis parent strain (2008S01-229), read-out: Parent strain MIC) of 32 µg/mL. The “effect on MIC” value (E. anophelis; replacement of exbD with Thr28Pro mutation in 2008N05-106) was “did not affect the vancomycin MIC”, the “survival of infected mice” value ([3]; 25 mg/kg subcutaneous twice daily for 3 days, from 2 h after intratracheal inoculation, all clinical strains except 2014C06-157) was “significantly improved the survival or delayed death” and the “in vivo efficacy against one isolate” value ([3]; 25 mg/kg, one isolate with similar MIC (2014C06-157)) was “ineffective”. For the same molecule, the “survival of infected mice” value ([3]; 100 mg/kg subcutaneous twice daily for 3 days) was “conferred a survival benefit”, the “improvement of murine survival” value ([3]; 100 mg/kg twice daily, infection by 2008S01-229-VAN-R compared to 2008S01-229) was “hampered” and the “survival of A. baumannii-infected mice” value ([4]; 100 mg/kg subcutaneous twice daily) was “did not improve the survival”. For the same molecule, the “activity in A. baumannii pneumonia model” value ([4]; 25 or 100 mg/kg subcutaneous twice daily, A. baumannii LAC-4) was “Lack of vancomycin (VAN) activity”, the “survival of infected wax moths” value ([5]; 10 mg/kg once, 2 h post-inoculation, five E. anophelis isolates, 72 h, 37°C, 6-8 caterpillars per group) was “improved the survival” and the “improvement of larval survival” value ([5]; 10 mg/kg, infection by 2008S01-229-VAN-R compared to 2008S01-229) was “hampered”. The “dose dependence of survival of infected wax moths” value ([5]; 5, 10 and 20 mg/kg once, 2 h post-inoculation, two clinical isolates) was “dose-dependent effect”.
